The source of these data is patent US20250340516A1, “Isoquinolinones as Modulators of POLRMT” (Pretzel Therapeutics, Inc., priority 2024, published 2025).

POLRMT, sequence (O00411 42-1230): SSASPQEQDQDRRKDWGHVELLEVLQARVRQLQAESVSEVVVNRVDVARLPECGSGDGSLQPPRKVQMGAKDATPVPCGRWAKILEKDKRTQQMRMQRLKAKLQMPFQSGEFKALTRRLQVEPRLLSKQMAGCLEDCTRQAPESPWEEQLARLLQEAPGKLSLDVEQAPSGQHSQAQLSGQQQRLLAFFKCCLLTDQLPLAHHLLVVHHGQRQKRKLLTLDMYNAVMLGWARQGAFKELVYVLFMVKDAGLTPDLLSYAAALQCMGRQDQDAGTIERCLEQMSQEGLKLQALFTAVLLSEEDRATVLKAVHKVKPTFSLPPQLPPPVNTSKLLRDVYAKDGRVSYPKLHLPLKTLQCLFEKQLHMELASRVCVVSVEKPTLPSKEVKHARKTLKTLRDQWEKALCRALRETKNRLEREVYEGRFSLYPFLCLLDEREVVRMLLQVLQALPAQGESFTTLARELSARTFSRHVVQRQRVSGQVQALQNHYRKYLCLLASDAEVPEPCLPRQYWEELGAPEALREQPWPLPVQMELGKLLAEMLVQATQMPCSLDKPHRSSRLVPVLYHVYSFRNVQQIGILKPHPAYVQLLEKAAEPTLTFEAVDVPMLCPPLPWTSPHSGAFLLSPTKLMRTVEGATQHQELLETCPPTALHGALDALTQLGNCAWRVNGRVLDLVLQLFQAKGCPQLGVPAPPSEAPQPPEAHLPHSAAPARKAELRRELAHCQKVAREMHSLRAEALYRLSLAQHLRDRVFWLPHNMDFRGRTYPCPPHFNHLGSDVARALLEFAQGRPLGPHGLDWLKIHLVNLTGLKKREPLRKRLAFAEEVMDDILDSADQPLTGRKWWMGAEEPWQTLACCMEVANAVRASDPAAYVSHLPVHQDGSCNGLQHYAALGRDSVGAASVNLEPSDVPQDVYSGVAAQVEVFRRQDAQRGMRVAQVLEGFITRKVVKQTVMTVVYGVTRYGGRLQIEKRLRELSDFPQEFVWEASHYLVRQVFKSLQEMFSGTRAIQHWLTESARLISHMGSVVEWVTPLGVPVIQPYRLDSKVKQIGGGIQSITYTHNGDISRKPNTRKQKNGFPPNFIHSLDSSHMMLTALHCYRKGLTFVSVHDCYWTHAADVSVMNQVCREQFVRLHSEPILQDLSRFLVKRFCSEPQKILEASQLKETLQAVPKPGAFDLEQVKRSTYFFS

The assay addresses POLRMT (Homo sapiens (Human), UniProt O00411). Nature of the assay: homogeneous TR-FRET assay of POLRMT inhibition (mitochondrial transcription, 407 bp RNA product). It counts as biochemical. Conditions: 7.5 nM POLRMT, 15 nM TFB2M, 30 nM TFAM, 0.5 nM DNA template, 500 μM NTPs, 37° C., 60 minutes, * = aggregation of data sets, read-out: IC50 values for isoquinolinone compounds. As to the method:
The inhibitory activity of the compounds of the present invention against POLRMT were determined by assays based on Bergbrede, T., et al., “An adaptable high-throughput technology enabling the identification of specific transcription modulators,” SLAC Discov., 22, 378-386 (2017).
The ability of some compounds of the present invention to inhibit POLRMT were determined in a homogeneous TR-FRET Assay using high-throughput screening in a 384-well plate format. This method is used to monitor the activity of mitochondrial transcription through measurement of its product, a 407 bp long RNA transcript. Detection of the product is facilitated by hybridization of two DNA-oligonucleotide probes to specific and adjacent sequences within the RNA product sequence. Upon annealing of the probes, two fluorophores are coupled directly to an acceptor nucleotide probe (ATTO647, 5′), or introduced via a coupled streptavidin with a biotinylated donor nucleotide probe (Europium cryptate) that is brought into sufficient proximity to serve as a fluorescence-donor-acceptor pair. Thus, a FRET signal at 665 nm is generated upon excitation at 340 nm.
Proteins used as transcription factors (POLRMT: NP_005026.3, TFAM: NP_003192.1, TFB2M: NP_071761.1) are diluted from their stocks to working concentrations of 1 μM, 20 μM and 4 μM respectively, in a dilution buffer containing 20 mM Tris-HCl (pH 8.0), 200 mM NaCl, 10% (v/v) glycerol, 1 mM Dithiothreitol (DTT), 0.5 mM EDTA.
DNA template is a pUC18 plasmid with the mitochondrial light strand promotor sequence (1-477) cloned between HindIII and BamHI sites. The DNA template is restriction linearized proximal to the promotor 3′-end (pUC-LSP).
The reaction mixture (10 uL) containing 7.5 nM POLRMT, 15 nM of TFB2M, 30 nM of TFAM, 0.5 nM of DNA template and 500 μM nucleotide triphosphate mix (NTPs) in a reaction buffer (containing 10 mM Tris-HCl (pH 7.5), 10 mM MgCl2, 40 mM NaCl, 10 mM DTT, 0.005% (w/v) Tween-20, 160 units/ml Rnase inhibitor and 0.1 mg/mL BSA) are dispensed to compounds in microplates, using a Thermo Multidrop® dispenser, and incubated at 37° C. in a VWR INCU-Line incubator for 60 minutes after mixing. No nucleotide triphosphate mix is added to negative control samples. Microplates with compounds to be tested in the assay are prepared from 10 mM compound stocks in 100% DMSO, equal amounts of DMSO without any compound are added to positive control and negative control samples.
During the incubation, a mix of the detection reagents is prepared in a buffer such that the enzymatic reaction is terminated due to chelating of Mg-ions and increased ionic strength, containing 50 mM Tris-HCl (pH 7.5), 700 mM NaCl, 20 mM EDTA, and 0.01% (w/v) Tween-20. Europium-streptavidin is pre-incubated with a 200-fold molar excess of a random sequence oligonucleotide to block unspecific binding of oligo, for two hours at ambient temperature in the dark. Afterwards, the blocked Europium-streptavidin is kept on ice until use.
At the end of the enzymatic reaction time, 5 μL detection oligo mix in the detection buffer is added, and assay plates are mixed and kept at ambient temperature for one hour, protected from light. The concentration of the Acceptor nucleotide oligo (e.g., ATTO647N-5′-[…]-3′ (SEQ ID NO: 1)) and Donor nucleotide oligo (e.g., bio-5′-AACACATCTCT(-bio)GCCAAACCCCA-bio-3′ (SEQ ID NO: 2)) in each assay well is 1 nM, and 3 nM, respectively.
After incubation with oligo mix, 5 μL of pre-blocked Europium-streptavidin reagent is dispensed to each assay well, assay plates are again mixed and kept at ambient temperature for one hour, protected from light.
The generated signal is measured with BMG Pherastar microtiter plate reader with a TRF light unit, using excitation at 340 nm, an integration time of 200 μs, and a delay time of 100 μs, before detection at 620 nm and 665 nm. The ratio of donor- and acceptor-fluorescence is used as a measure of the generated transcript product (i.e. enzymatic activity).
Regarding `Cc1cccc(C#N)c1-c1c[nH]c(=O)c2cc(OCC#N)ccc12` [Example 48, 2-(7-(cyanomethoxy)-1-oxo-1,2-dihydroisoquinolin-4-yl)-3-methylbenzonitrile], the IC50 came out at 500 nM.
With `Cc1c(F)cccc1-c1c[nH]c(=O)c2cc(N(C)CC(=O)NCCO)ccc12` [Example 70, 2-((4-(3-fluoro-2-methylphenyl)-1-oxo-1,2-dihydroisoquinolin-7-yl)(methyl)amino)-N-(2-hydroxyethyl)acetamide], the IC50 is 1000 nM.
For the molecule `CCN1CCN(C(=O)[C@@H](C)Oc2ccc3c(-c4ccccc4C)c[nH]c(=O)c3c2)CC1` [Example 18, (R)-7-((1-(4-ethylpiperazin-1-yl)-1-oxopropan-2-yl)oxy)-4-(o-tolyl)isoquinolin-1(2H)-one], the IC50 is 200 nM.
Consider `CC(=O)N(C)CCN(C)C(=O)[C@@H](C)Oc1ccc2c(-c3ccccc3C)c[nH]c(=O)c2c1` [Example 22, (R)-N-methyl-N-(2-(N-methylacetamido)ethyl)-2-((1-oxo-4-(o-tolyl)-1,2-dihydroisoquinolin-7-yl)oxy)propanamide], for which the IC50 came out at 2000 nM.
Consider `Cc1cccc(CO)c1-c1c[nH]c(=O)c2cc(OCC(F)F)ccc12` [Example 72, 7-(2,2-difluoroethoxy)-4-(2-(hydroxymethyl)-6-methylphenyl)isoquinolin-1(2H)-one], for which the IC50 was 100 nM.
As to `Cc1ccccc1-c1c[nH]c(=O)c2cc(O[C@H](C)C(=O)N3CCCC(CC(=O)O)C3)ccc12` (single isomer, unassigned) [Example 13], the 50% inhibitory concentration (IC50) is 70 nM.
For the molecule `Cc1ccccc1-c1c[nH]c(=O)c2cc(N(C)[C@@H](C)C(=O)N3CCC[C@H](C(=O)O)C3)ccc12` (single isomer, unassigned) [Example 8], the concentration for half-maximal inhibition (IC50) is 93000 nM.
For the molecule `Cc1ccccc1-c1c[nH]c(=O)c2cc(O[C@H](C)C(=O)N3CCC(C)(C(=O)O)CC3)ccc12` [Example 15, (R)-4-methyl-1-(2-((1-oxo-4-(o-tolyl)-1,2-dihydroisoquinolin-7-yl)oxy)propanoyl)piperidine-4-carboxylic acid], the IC50 was determined as 60 nM.
For `Cc1ccccc1-c1c[nH]c(=O)c2cc(O[C@H](C)C(=O)N3CCC[C@@H](CC(N)=O)C3)ccc12` [Example 39, 2-((S)-1-((R)-2-((1-oxo-4-(o-tolyl)-1,2-dihydroisoquinolin-7-yl)oxy)propanoyl)piperidin-3-yl)acetamide], the IC50 came out at 40 nM.
For the molecule `Cc1c(F)cccc1-c1c[nH]c(=O)c2cc(O[C@H](C)C(=O)N3CCN(C(N)=O)CC3)ccc12` [Example 57, (R)-4-(2-((4-(3-fluoro-2-methylphenyl)-1-oxo-1,2-dihydroisoquinolin-7-yl)oxy)propanoyl)piperazine-1-carboxamide], the IC50 worked out at 20 nM.
The same measure for `CCC1(C(=O)O)CCCN(C(=O)[C@@H](C)Oc2ccc3c(-c4ccccc4C)c[nH]c(=O)c3c2)C1` (single isomer, unassigned) [Example 52]: 20 nM; for `C[C@@H](Oc1ccc2c(-c3ccc(F)cc3Cl)c[nH]c(=O)c2c1)C(=O)N1CCCC(C(C)(C)C(=O)O)C1` (single isomer, unassigned) [Example 51]: 300 nM.
The same measure for `N#CCOc1ccc2c(-c3ccccc3CCO)c[nH]c(=O)c2c1` [Example 42, 2-((4-(2-(2-hydroxyethyl)phenyl)-1-oxo-1,2-dihydroisoquinolin-7-yl)oxy)acetonitrile]: 300 nM; for `COCCN1C2CCC1CN(C(=O)[C@@H](C)Oc1ccc3c(-c4ccccc4C)c[nH]c(=O)c3c1)C2` [Example 27, 7-(((2R)-1-(8-(2-methoxyethyl)-3,8-diazabicyclo[3.2.1]octan-3-yl)-1-oxopropan-2-yl)oxy)-4-(o-tolyl)isoquinolin-1(2H)-one]: 100 nM; for `Cc1ccccc1-c1c[nH]c(=O)c2cc(O[C@H](C)C(=O)N3CCCC(C(C)(C)C(=O)O)C3)ccc12` (single isomer, unassigned) [Example 44]: 60 nM.
Take `Cc1ccccc1-c1c[nH]c(=O)c2cc(O[C@H](C)C(=O)N3CCC[C@@H](N(C)C)C3)ccc12` [Example 33, 7-(((R)-1-((R)-3-(dimethylamino)piperidin-1-yl)-1-oxopropan-2-yl)oxy)-4-(o-tolyl)isoquinolin-1(2H)-one]: the IC50 was determined as 300 nM.
For the molecule `Cc1ccccc1-c1c[nH]c(=O)c2cc(O[C@H](C)C(=O)N3CC[C@@H](N(C)C)C3)ccc12` [Example 64, 7-(((R)-1-((R)-3-(dimethylamino)pyrrolidin-1-yl)-1-oxopropan-2-yl)oxy)-4-(0-tolyl)isoquinolin-1(2H)-one], the IC50 was determined as 200 nM.
Take `Cc1cccc(CO)c1-c1c[nH]c(=O)c2cc(OCC(F)(F)F)ccc12` [Example 71, 4-(2-(hydroxymethyl)-6-methylphenyl)-7-(2,2,2-trifluoroethoxy)isoquinolin-1(2H)-one]: the IC50 worked out at 80 nM.
Next, `Cc1ccccc1-c1c[nH]c(=O)c2cc(N(C)[C@@H](C)C(=O)N3CCC[C@H](C(=O)O)C3)ccc12` (single isomer, unassigned) [Example 7]: 200 nM.
Regarding `Cc1ccccc1-c1c[nH]c(=O)c2cc(O[C@@H](C)C(=O)N(C)CC(=O)O)ccc12` [Example 26, (S)-N-methyl-N-(2-((1-oxo-4-(o-tolyl)-1,2-dihydroisoquinolin-7-yl)oxy)propanoyl)glycine], the IC50 turned out to be 43000 nM.
For `Cc1ccccc1-c1c[nH]c(=O)c2cc(O[C@H](C)C(=O)N3CCCC(C(C)(C)C(=O)O)C3)ccc12` (single isomer, unassigned) [Example 43], the half-inhibitory concentration (IC50) was determined as 20 nM.
Regarding `Cc1ccccc1-c1c[nH]c(=O)c2cc(O[C@H](C)C(=O)N3CCN(C(N)=O)CC3)ccc12` [Example 16, (R)-4-(2-((1-oxo-4-(o-tolyl)-1,2-dihydroisoquinolin-7-yl)oxy)propanoyl)piperazine-1-carboxamide], the half-inhibitory concentration (IC50) was 100 nM.
Take `Cc1ccccc1-c1c[nH]c(=O)c2cc(O[C@H](C)C(=O)N3CC(C(=O)O)CC(F)(F)C3)ccc12` (single isomer, unassigned) [Example 1]: the concentration for half-maximal inhibition (IC50) is 60 nM.
On to `C[C@@H](Oc1ccc2c(-c3ccc(F)cc3Cl)c[nH]c(=O)c2c1)C(=O)N1CC(C(N)=O)CC(F)(F)C1` (single isomer, unassigned) [Example 9], for which the IC50 is 200 nM.
Consider `CC(=O)N1CCN(C[C@@H](C)Oc2ccc3c(-c4ccccc4C)c[nH]c(=O)c3c2)CC1` [Example 54, (R)-7-((1-(4-acetylpiperazin-1-yl)propan-2-yl)oxy)-4-(o-tolyl)isoquinolin-1(2H)-one], for which the IC50 was 4000 nM.
Regarding `Cc1ccccc1-c1c[nH]c(=O)c2cc(O[C@H](C)C(=O)N3CCCC(CC(=O)O)C3)ccc12` (single isomer, unassigned) [Example 12], the IC50 is 60 nM.
`Cc1ccccc1-c1c[nH]c(=O)c2cc(O[C@H](C)C(=O)N3CCCCC(N(C)C)C3)ccc12` (single isomer, unassigned) [Example 75]: the IC50 was determined as 3000 nM.
With `C[C@@H](Oc1ccc2c(-c3ccc(F)cc3Cl)c[nH]c(=O)c2c1)C(=O)N1CCC(C)(C(=O)O)CC1` [Example 14, (R)-1-(2-((4-(2-chloro-4-fluorophenyl)-1-oxo-1,2-dihydroisoquinolin-7-yl)oxy)propanoyl)-4-methylpiperidine-4-carboxylic acid], the IC50 stood at 100 nM.
